# The supplement of paper PMC10307832
# What was measured:
# Experiment in all cases: relative viability (nuclei count vs DMSO), 5 days (fraction); higher = more cells survive
# Pazopanib + Pictilisib = compound: Cc1ccc(Nc2nccc(N(C)c3ccc4c(C)n(C)nc4c3)n2)cc1S(N)(=O)=O [Pazopanib] + CS(=O)(=O)N1CCN(Cc2cc3nc(-c4cccc5[nH]ncc45)nc(N4CCOCC4)c3s2)CC1 [Pictilisib] (partner 1 µM)
# Outline: (§1)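 For relative viability, nuclei counts in treated wells were divided by those in vehicle wells. Lung cancer cell lines had been pin-tool dosed in 1536-well plates the day after seeding and cultured for 5 days, then fixed and stained in one step (final 0.05% Triton X-100, 1% formaldehyde, 1 ug/ml Hoechst) and imaged at 4×. Doses were one drug alone or a fixed anchor-drug dose plus five library-drug doses (not always all listed) in √10 steps, and values are duplicate-plate medians.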
# Ponatinib + Dasatinib = compound: Cc1ccc(C(=O)Nc2ccc(CN3CCN(C)CC3)c(C(F)(F)F)c2)cc1C#Cc1cnc2cccnn12 [Ponatinib] + Cc1nc(Nc2ncc(C(=O)Nc3c(C)cccc3Cl)s2)cc(N2CCN(CCO)CC2)n1 [Dasatinib] (partner 0.075 µM)
# Outline: as §1
# Pazopanib + OSI-027 = compound: Cc1ccc(Nc2nccc(N(C)c3ccc4c(C)n(C)nc4c3)n2)cc1S(N)(=O)=O [Pazopanib] + COc1cccc2cc(-c3nc([C@H]4CC[C@H](C(=O)O)CC4)n4ncnc(N)c34)[nH]c12 [OSI-027] (partner 0.5 µM)
# Outline: as §1
# Ponatinib + Trametinib = compound: Cc1ccc(C(=O)Nc2ccc(CN3CCN(C)CC3)c(C(F)(F)F)c2)cc1C#Cc1cnc2cccnn12 [Ponatinib] + CC(=O)Nc1cccc(-n2c(=O)n(C3CC3)c(=O)c3c(Nc4ccc(I)cc4F)n(C)c(=O)c(C)c32)c1 [Trametinib] (partner 0.02 µM)
# Outline: as §1
cell line,measurement,setting,value
UMC-11,relative viability,Pazopanib + Pictilisib; first compound 0.01 µM,0.724
same,relative viability,Pazopanib + Pictilisib; first compound 0.03162 µM,0.879
same,relative viability,Pazopanib + Pictilisib; first compound 0.1 µM,0.787
same,relative viability,Pazopanib + Pictilisib; first compound 0.3162 µM,0.928
same,relative viability,Pazopanib + Pictilisib; first compound 1 µM,1.13
same,relative viability,Ponatinib + Dasatinib; first compound 0.002 µM,0.465
same,relative viability,Ponatinib + Dasatinib; first compound 0.006325 µM,0.451
same,relative viability,Ponatinib + Dasatinib; first compound 0.06325 µM,0.51
same,relative viability,Ponatinib + Dasatinib; first compound 0.2 µM,0.465
same,relative viability,Pazopanib + OSI-027; first compound 0.01 µM,0.501
same,relative viability,Pazopanib + OSI-027; first compound 0.03162 µM,0.544
same,relative viability,Pazopanib + OSI-027; first compound 0.1 µM,0.442
same,relative viability,Pazopanib + OSI-027; first compound 0.3162 µM,0.504
same,relative viability,Pazopanib + OSI-027; first compound 1 µM,0.541
same,relative viability,Ponatinib + Trametinib; first compound 0.002 µM,0.648
same,relative viability,Ponatinib + Trametinib; first compound 0.006325 µM,0.638
same,relative viability,Ponatinib + Trametinib; first compound 0.06325 µM,0.822
same,relative viability,Ponatinib + Trametinib; first compound 0.2 µM,0.709
